The values below come from US9023812B2, “Neuroprotective ganglioside compositions for use in treating huntington's disease” (The Governors of the University of Alberta, priority 2009, dated 2015).

The subject of series [1] is STHdh^111Q/111Q cells. Kind of series: Induction and measurement of apoptosis (annexin V binding / active caspase-3, FACS) in HD knock-in striatal cells. The settings on record: for protection from apoptosis (annexin V binding, caspase 3 activation): 0.1-1-5-10-20 μM Liga20, knock-in striatal cells WT or HD, FIG. 13.
Description: Conditionally-immortalized rat striatal ST14A cells and ST14A cells expressing an N-terminal fragment of mHtt containing 120 glutamines (N548-120Q) were kindly provided by Dr. E. Cattaneo (University of Milan, Italy) and maintained in culture at the permissive temperature (33° C.) as previously reported (Rigamonti et al., 2001). Conditionally-immortalized mouse striatal knock-in cells expressing endogenous levels of wild-type (STHdh^Q7/Q7) or mHtt (STHdh^Q111/Q111) were a gift from Dr. M. E. MacDonald (Massachusetts General Hospital, Boston, Mass., USA) and were maintained as previously described (Trettel et al., 2000).
In order to induce apoptosis immortalized cells were incubated at 39° C. […] For apoptosis detection, at the end of each treatment cells were collected, washed with PBS and incubated with PE-conjugated annexin V (BD Biosciences) according to the manufacturer's instructions. For the simultaneous detection of active caspase-3 and annexin V binding, cells were first labeled with annexin V as indicated above, then fixed in 4% paraformaldehyde and permeabilized with 0.3% saponin in PBS containing 4% donkey serum.
GM1 (Alexis) at the indicated concentrations was added to the cells in serum-free medium at the time when cells were shifted at 39° C. to induce apoptosis.
K252a (200 nM, Calbiochem) was used to inhibit TrK receptor-mediated signaling. […] Both inhibitors were administered to the cells 2 hours before induction of apoptosis and administration of GM1.
Series [2] deals with STHdh^7Q/7Q cells. Put plainly: Induction and measurement of apoptosis (annexin V binding / active caspase-3, FACS) in wild-type knock-in striatal cells. The series is classed as cell-based, mouse. The method, then: To inhibit ganglioside synthesis, wild-type cells were incubated for 3 days in medium containing 10 μM 1-phenyl-2-palmitoylamino-3-morpholino-1-propanol (PPMP, Matreya, Pleasant Gap, Pa., USA). Cells were then washed two times with PBS and incubated for 12 hours at 39° C. in serum-free medium to induce apoptosis.

Series [3] has as its system Htt phosphorylation at Ser13 and S16. Kind of series: PPMP treatment and immunoblotting of total and phospho-Htt in striatal knock-in cells. It is filed as cell-based, mouse. Particulars: 10 μM PPMP for 3 days. The method, then:
Knock-in striatal cells expressing wild-type Htt (7/7) or mHtt (111/111) (Trettel, F., et al. (2000)) were incubated for 3 days in medium containing 10 μM 1-phenyl-2-palmitoylamino-3-morpholino-1-propanol (PPMP, Matreya, Pleasant Gap, Pa., USA) to inhibit ganglioside synthesis. Cells were then washed two times with PBS and lysed in 50 mM Tris, 1% NP-40, 1 mM EDTA, 10 mM NaF, 1 mM Na2VO4 and 1:100 protease inhibitor cocktail (SIGMA-Aldrich). […] HRP-conjugated secondary antibodies were used at 1:3,000 dilution (Bio-Rad Laboratories, Hercules, Calif., USA). Protein bands were detected by ECL Plus and quantitated with Quantity One® software (Bio-Rad Laboratories, Hercules, Calif., USA).
In these experiments, synthesis of gangliosides was inhibited in striatal knock-in cells with PPMP, as above. Levels of total and phospho-Htt were detected in total cell lysates using immunoblotting (Panel A) with mAb2166 and N17pS13pS16 antibody, respectively. Panel B is a graph is the densitometric analysis of the immunoblot show in Panel A.
Background: In western blotting, separated proteins are transferred to a membrane and probed.

Series [4] deals with STHdh^7Q/7Q cells. The series is classed as cell-based, mouse.
For series [5] the following is noted: Wu et al., 2004; cited from earlier work.
In another series the test system is mHtt. Kind of series: Huntingtin immunoprecipitation and immunoblotting with anti-phospho-Ser antibody. Particulars: STHdh^111Q/111Q cells, 50 μM GM1 for 5 minutes. It is filed as cell-based, mouse.
The subject of another series is YAC128 mice. Kind of series: Motor behavior (rotarod and horizontal ladder task) during chronic intraventricular GM1 infusion in YAC128 mice. A general note: In the rotarod test animals must keep their balance on a rotating rod.
For another series, the system named is AKT. Kind of series: AKT activation (phospho-AKT/AKT ratio) by immunoblotting in striatal knock-in cells. The series is classed as cell-based, mouse. Particulars: for phospho-AKT/AKT ratio: 7 minutes and 6 hours after addition of GM1, serum-free medium at 39° C. The method, then:
FIG. 7—GM1 protective effect on striatal cells is partially mediated by AKT activation. A) Akt phosphorylation was measured 7 minutes and 6 hours after addition of GM1 in serum-free medium and incubation at 39° C. to induce cell death. Analysis of phospho-AKT/AKT ratio, indicative of AKT activation, was performed by densitometric analysis of immunoblots in three independent experiments. In each experiment, the pospho-AKT/AKT ratio measured in wild-type untreated cells (control) was arbitrarily set to 100% to which HD and GM1-treated samples were compared. Mean values±SD and representative immunoblots are shown. […] The percentage of apoptotic cells was measured by annexin V binding. Data are the mean±SD of 3 experiments, each performed in triplicate. 7/7, STHdh^7Q/7Q; 111/111, STHdh^111Q/111Q; *, p<0.05; **, p<0.001; ***, p<0.0001
Cells were scraped in 10 mM Tris-HCl, pH 7.4, containing 1% NP40, 10 mM NaF, 1 mM Na2VO4 and 1:100 protease inhibitor cocktail (SIGMA-Aldrich, St. Louis, Mo., USA) and lysed by sonication followed by incubation on ice for 30 minutes. Cell debris were removed by centrifugation at 15,000×g for 15 minutes. Protein concentration in the supernatant was measured by BCA assay (Pierce). Thirty μg of proteins were resolved on 10% SDS-PAGE and transferred to nitrocellulose membranes (Bio-Rad Laboratories, Hercules, Calif., USA). Membranes were blocked with 5% non-fat milk in TBS-T (50 mM Tris-HCl, 150 mM NaCl, pH 7.4, 0.1% Tween 20) for 1 hour and then probed overnight with primary antibodies: anti-phospho-AKT (Ser473) (1:500), anti-AKT (1:500) (both from Cell Signaling), Abcam). HRP-conjugated secondary antibodies were used at 1:3,000 dilution (Bio-Rad Laboratories, Hercules, Calif., USA). Protein bands were detected by ECL Plus (Amersham Biosciences) and analyzed with Quantity One® software (Bio-Rad Laboratories, Hercules, Calif., USA).

In series [6] the test system is STHdh^111Q/111Q cells. The series is classed as cell-based, mouse. Particulars: 50 μM GM1, HD cells, FIG. 5C.
The subject of series [7] is Htt phosphorylation at Ser13 and Ser16. Kind of series: Htt phosphorylation in cerebral cortex homogenate of GM1- and CSF-infused mice (immunoblotting, pSer13Ser16 antibody). The series is classed as in vivo, mouse. The settings on record: YAC128 and WT littermates infused for 28 days. As for the experimental part:
At the end of the GM1 infusion protocol (28 days after peristaltic pump implantation), mice were euthanized. Brain cortices were dissected and homogenized in 50 mM Tris, 1% NP40, 1 mM EDTA, 10 mM NaF, 1 mM Na2VO4 and 1:100 protease inhibitor cocktail (SIGMA-Aldrich). […] Alexa680-conjugated secondary antibody were used at 1:1,000 dilution in Odyssey buffer. Imaging and analysis were performed using and Odyssey Infrared System (LiCor).
Subsequent to the experimental protocol on animals described above, the mouse brains were dissected and homogenized to examine Htt phosphorylation at Ser13 and Ser16.
In FIG. 20, YAC128 mice and WT littermates infused with CSF (vehicle) or GM1 for 28 days were sacrificed and the amount of phospho-Htt in the same amount of cerebral cortex homogenate was detected by immunoblotting with a pSer13Ser16 specific antibody.

For series [8] the following is noted: cited from earlier work.
The next series concerns wild-type mice. Put plainly: Motor behavior (rotarod and horizontal ladder task) during chronic intraventricular GM1 infusion in wild-type littermates. Particulars: intraventricular infusion for 28 days.

Description for YAC128 mice: (§1) The pump infused a solution of 5.6 mg GM1/ml in artificial cerebrospinal fluid (CSF) (or CSF only in control groups) into the brain ventricle at constant rate (0.25 μl/h, corresponding to 1.4 μg GM1/h or 33.6 μg GM1/day) for 28 days. […] Mice were let recovery for a week, after which motor behavior tests were performed on weekly bases.
(§2) Motor behavior was evaluated with two sensitive tests that are considered the gold-standard for analysis of HD motor deficit: rotarod and horizontal ladder test (Ferrante, R. J. (2009)) To avoid that stress and anxiety would affect motor performance, mice were acclimatized for two days to training room, instruments and tasks to perform, before measuring the actual performance in each specific task. […] Latency to fall off the rotarod in each of these sessions was measured, averaged and compared across groups. For the horizontal ladder walking test, a task that assesses loss and recovery of sensori-motor functions 16, mice were recorded with a videocamera as they walked spontaneously across the ladder. […]
(§3) The pump infused a solution of 3.6 mg GM1/ml in artificial CSF (or CSF only in control groups) into the brain ventricle at constant rate (0.25 μl/h) for 4 weeks. The amount of GM1 infused was calculated in order to achieve 50 μM final concentration in the mouse CSF. […]
Description for wild-type mice: as §1, §2, §3

Take `COC(=O)[C@@]1(O)C[C@H]2O[C@]1(C)n1c3ccccc3c3c4c(c5c6ccccc6n2c5c31)C(=O)NC4` [K252a]: in the series on STHdh^111Q/111Q cells [1] (200 nM K252a, 2 hours pre-incubation before GM1 and apoptotic stress, 7/7 and 111/111 cells, FIG. 10), the “effect of pan-Trk inhibitor on GM1 protective activity” value is “GM1 protective activity was still fully preserved”.

Turning to `CCCCCCCCCCCCCCCC(=O)NC(CN1CCOCC1)C(O)c1ccccc1` (stereo not shown) [PPMP, 1-phenyl-2-palmitoylamino-3-morpholino-1-propanol], the “cell susceptibility to apoptosis after inhibition of ganglioside synthesis” value in the series with STHdh^7Q/7Q cells [2] (10 μM PPMP for 3 days, then 12 hours serum-free medium at 39° C., FIG. 6B) is recorded as “increased STHdh^7Q/7Q cell susceptibility to apoptosis to the levels observed in STHdh^111Q/111Q cells”. The “Htt phosphorylation at Ser13 and S16 after inhibition of ganglioside synthesis” value in series [3] is “decreases levels of phosphorylation at the same amino acid residues”. Besides, in the series with STHdh^7Q/7Q cells [4] (10 μM PPMP for 3 days, wild-type cells, FIG. 6A), the “plasma membrane GM1 levels after inhibition of ganglioside synthesis” value was “reduce GM1 levels to the amount observed in STHdh^111Q/111Q cells”.

For the compound LIGA-20, the “potency relative to GM1” value in series [5] was “at least an order of magnitude more potent than GM1”. Besides, the “protection from apoptosis (annexin V binding, caspase 3 activation)” value in the series on STHdh^111Q/111Q cells [1] is “not effective in protecting striatal cells”; in the series with STHdh^111Q/111Q cells [1] (listed as Liga20), “not protective in a genetic cell model of HD”.

On to ganglioside GM1, for which the “mHtt phosphorylation (phospho-Ser/mHtt)” value in the series on mHtt is reported as “increased mHtt phosphorylation”. Also, the “motor behavior compared with wild-type mice” value in the series with YAC128 mice (after 13 days of GM1 infusion) is “indistinguishable from wild-type mice”. Moreover, in the series on YAC128 mice (intraventricular infusion 0.25 μl/h for 28 days, 3 mice per group), the “motor behavior (rotarod, horizontal ladder task) versus CSF-infused HD mice” value is listed as “performed significantly better than HD control mice infused with CSF”. Moreover, the phospho-AKT/AKT ratio result with AKT (STHdh^7Q/7Q cells) and in the series with AKT (STHdh^111Q/111Q cells) was “increased the phospho-AKT/AKT ratio” in each case. The “levels of active (phospho) AKT compared with wild-type” value in the series on AKT (STHdh^111Q/111Q cells after GM1 administration) is on record as “restored to normal”. The “protection from apoptosis (annexin V binding, active caspase-3)” value is “protected both wild-type and HD cells from apoptosis” in the series on STHdh^7Q/7Q cells [2] (50 μM, serum deprivation at 39° C., wild-type cells); “protected both wild-type and HD cells from apoptosis” in the series with STHdh^111Q/111Q cells [1] (50 μM, serum deprivation at 39° C., HD cells). Further, the cell survival entry in the series on STHdh^7Q/7Q cells [2] (treated wild-type cells, 50 μM GM1, apoptotic conditions) is listed as “cell survival was also further augmented”. The “effect of GM1 on PPMP-induced susceptibility to apoptosis” value in the series with STHdh^7Q/7Q cells [2] (wild-type cells pre-treated with 10 μM PPMP for 3 days) is “abolished PPMP effects”. Moreover, the “plasma membrane GM1 levels after GM1 administration” value in the series with STHdh^111Q/111Q cells [6] was “complete restoration of GM1 levels”. Besides, the “phosphorylation of Htt at Ser13 and Ser16 in cerebral cortex” value in series [7] is “increase in the phosphorylation of Htt at these residues”. Moreover, the “GM1 content after GM1 administration” value in the series with STHdh^7Q/7Q cells [4] (50 μM GM1, treated wild-type cells, FIG. 5C) is listed as “further increase of GM1 content above their normal levels”. Moreover, the “frequency of possible adverse effects such as Guillain-Barre' syndrome (GBS)” value in [8] (Alter, 1998) is “rare”. In series [8] (patients with stroke, Parkinson's disease, spinal cord injury), the “safety in clinical trials” value is “relatively safe to use”. The “susceptibility of HD cells to apoptosis compared with wild-type cells” value in the series on STHdh^111Q/111Q cells [1] (50 μM, serum deprivation at 39° C.) was “restored normal susceptibility to apoptosis in HD cells”. Also, in the series on STHdh^111Q/111Q cells [1] (knock-in striatal cells (7/7 and 111/111), 6 hours in serum-free medium at 39° C., FIG. 9), the “dose-dependency of GM1 anti-apoptotic action” value is reported as “dose-dependent”. Also, in the series with wild-type mice, the “behavioral differences GM1 versus CSF infusion” value is “No behavioral differences were noted”.
